Reference: the kinase profiling compilation of Christmann-Franck et al. (2016)

Legend:
Assay in all cases: radiometric filter-binding kinase assay, Kinase HotSpot
Conditions in all cases: compound 0.5 µM; ATP 10 µM
ACVR1 (human) = ACVR1 (human) (UniProt Q04771)
ADRBK1 (human) = ADRBK1 (human) (UniProt P25098)
AURKC (human) = AURKC (human) (UniProt Q9UQB9)
BMX (human) = BMX (human) (UniProt P51813)
BRAF (human) = BRAF (human) (UniProt P15056)
BTK (human) = BTK (human) (UniProt Q06187)
CDK1 CCNA2 (human) = CDK1 CCNA2 (human) (UniProt P06493+P20248)
DAPK1 (human) = DAPK1 (human) (UniProt P53355)
DDR2 (human) = DDR2 (human) (UniProt Q16832)
DYRK1B (human) = DYRK1B (human) (UniProt Q9Y463)
Chain of DYRK1B (human) (Q9Y463 whole entry, looked up): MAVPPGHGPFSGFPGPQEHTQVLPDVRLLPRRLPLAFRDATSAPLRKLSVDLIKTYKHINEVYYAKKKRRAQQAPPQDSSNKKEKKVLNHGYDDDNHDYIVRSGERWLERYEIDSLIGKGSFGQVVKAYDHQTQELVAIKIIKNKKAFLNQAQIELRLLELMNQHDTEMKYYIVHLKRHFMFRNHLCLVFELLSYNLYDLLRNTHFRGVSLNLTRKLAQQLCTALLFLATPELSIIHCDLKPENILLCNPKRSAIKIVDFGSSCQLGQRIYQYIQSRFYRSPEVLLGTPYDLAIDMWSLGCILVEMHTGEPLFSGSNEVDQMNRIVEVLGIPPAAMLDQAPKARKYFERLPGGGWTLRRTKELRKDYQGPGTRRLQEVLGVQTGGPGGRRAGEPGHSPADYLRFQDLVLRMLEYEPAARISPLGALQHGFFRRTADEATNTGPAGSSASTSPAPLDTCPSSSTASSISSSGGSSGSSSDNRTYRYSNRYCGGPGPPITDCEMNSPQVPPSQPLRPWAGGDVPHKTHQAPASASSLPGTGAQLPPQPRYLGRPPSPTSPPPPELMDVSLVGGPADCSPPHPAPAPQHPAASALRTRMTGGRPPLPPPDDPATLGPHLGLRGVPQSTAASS

EGFR (human) = EGFR (human) (UniProt P00533)
EPHA5 (human) = EPHA5 (human) (UniProt P54756)
EPHA6 (human) = EPHA6 (human) (UniProt Q9UF33)
EPHA8 (human) = EPHA8 (human) (UniProt P29322)
FGFR1 (human) = FGFR1 (human) (UniProt P11362)
FLT3 (human) = FLT3 (human) (UniProt P36888)
FRK (human) = FRK (human) (UniProt P42685)
FYN (human) = FYN (human) (UniProt P06241)
GRK5 (human) = GRK5 (human) (UniProt P34947)
HIPK1 (human) = HIPK1 (human) (UniProt Q86Z02)
IKBKE (human) = IKBKE (human) (UniProt Q14164)
INSRR (human) = INSRR (human) (UniProt P14616)
Chain of INSRR (human) (P14616 whole entry, looked up): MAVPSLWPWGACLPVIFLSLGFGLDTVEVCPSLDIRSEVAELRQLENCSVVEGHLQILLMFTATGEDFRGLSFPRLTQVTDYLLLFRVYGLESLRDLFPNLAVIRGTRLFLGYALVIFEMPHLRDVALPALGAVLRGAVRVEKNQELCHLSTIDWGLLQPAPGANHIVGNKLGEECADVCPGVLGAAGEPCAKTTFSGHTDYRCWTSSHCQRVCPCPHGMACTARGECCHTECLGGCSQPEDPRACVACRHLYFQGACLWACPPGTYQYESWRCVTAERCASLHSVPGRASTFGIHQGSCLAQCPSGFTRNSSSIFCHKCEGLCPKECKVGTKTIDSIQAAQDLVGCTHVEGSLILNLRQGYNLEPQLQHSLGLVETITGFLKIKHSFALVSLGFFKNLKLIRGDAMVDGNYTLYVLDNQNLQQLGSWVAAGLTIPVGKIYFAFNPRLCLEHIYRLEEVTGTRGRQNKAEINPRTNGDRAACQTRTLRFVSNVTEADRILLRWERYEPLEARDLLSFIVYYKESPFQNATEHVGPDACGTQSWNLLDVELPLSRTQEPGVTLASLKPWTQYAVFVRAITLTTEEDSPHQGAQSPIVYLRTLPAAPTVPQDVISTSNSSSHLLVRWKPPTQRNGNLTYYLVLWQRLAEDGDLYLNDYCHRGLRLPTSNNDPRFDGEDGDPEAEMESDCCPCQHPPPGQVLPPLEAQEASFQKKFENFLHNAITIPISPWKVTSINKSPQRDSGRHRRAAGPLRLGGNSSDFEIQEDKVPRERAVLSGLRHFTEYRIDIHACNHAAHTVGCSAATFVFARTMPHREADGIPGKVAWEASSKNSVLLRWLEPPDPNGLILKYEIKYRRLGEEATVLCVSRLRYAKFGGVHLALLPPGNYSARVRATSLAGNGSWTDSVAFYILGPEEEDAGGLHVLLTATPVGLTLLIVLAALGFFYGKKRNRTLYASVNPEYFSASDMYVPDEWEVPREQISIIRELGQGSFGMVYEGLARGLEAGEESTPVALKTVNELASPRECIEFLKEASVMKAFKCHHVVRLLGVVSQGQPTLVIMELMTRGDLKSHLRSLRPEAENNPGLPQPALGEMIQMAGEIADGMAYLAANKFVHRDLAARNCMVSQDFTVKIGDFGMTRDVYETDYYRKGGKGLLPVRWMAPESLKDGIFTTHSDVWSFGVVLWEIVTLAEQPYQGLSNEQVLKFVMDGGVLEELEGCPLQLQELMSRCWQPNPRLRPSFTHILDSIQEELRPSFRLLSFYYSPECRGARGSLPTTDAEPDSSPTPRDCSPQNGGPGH

IRAK1 (human) = IRAK1 (human) (UniProt P51617)
LCK (human) = LCK (human) (UniProt P06239)
MAP3K2 (human) = MAP3K2 (human) (UniProt Q9Y2U5)
MAP3K8 (human) = MAP3K8 (human) (UniProt P41279)
MARK3 (human) = MARK3 (human) (UniProt P27448)
MYO3B (human) = MYO3B (human) (UniProt Q8WXR4)
NEK6 (human) = NEK6 (human) (UniProt Q9HC98)
PDPK1 (human) = PDPK1 (human) (UniProt O15530)
PRKACG (human) = PRKACG (human) (UniProt P22612)
PRKCG (human) = PRKCG (human) (UniProt P05129)
PRKCZ (human) = PRKCZ (human) (UniProt Q05513)
PRKD2 (human) = PRKD2 (human) (UniProt Q9BZL6)
RPS6KA3 KD1 KD2 (human) = RPS6KA3 KD1 KD2 (human) (UniProt P51812)
Chain of RPS6KA3 KD1 KD2 (human) (P51812 whole entry, looked up): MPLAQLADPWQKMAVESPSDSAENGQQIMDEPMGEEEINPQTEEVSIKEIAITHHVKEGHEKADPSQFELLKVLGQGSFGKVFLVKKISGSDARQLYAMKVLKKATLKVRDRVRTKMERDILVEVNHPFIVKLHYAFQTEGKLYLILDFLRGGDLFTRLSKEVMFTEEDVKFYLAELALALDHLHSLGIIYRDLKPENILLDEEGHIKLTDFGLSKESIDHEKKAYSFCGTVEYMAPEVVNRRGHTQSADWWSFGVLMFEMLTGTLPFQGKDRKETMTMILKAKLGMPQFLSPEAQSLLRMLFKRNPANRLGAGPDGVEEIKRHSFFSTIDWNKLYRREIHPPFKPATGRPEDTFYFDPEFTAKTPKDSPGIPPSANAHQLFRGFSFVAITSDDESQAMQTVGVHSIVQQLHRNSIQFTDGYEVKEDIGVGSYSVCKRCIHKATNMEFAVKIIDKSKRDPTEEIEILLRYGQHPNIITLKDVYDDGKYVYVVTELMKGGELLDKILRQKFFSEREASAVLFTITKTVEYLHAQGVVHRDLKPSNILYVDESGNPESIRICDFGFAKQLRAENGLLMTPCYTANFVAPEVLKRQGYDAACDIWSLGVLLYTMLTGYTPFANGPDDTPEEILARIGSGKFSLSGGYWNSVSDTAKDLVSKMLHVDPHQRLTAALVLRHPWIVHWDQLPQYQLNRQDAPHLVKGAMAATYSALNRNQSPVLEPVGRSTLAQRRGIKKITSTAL

RPS6KB1 (human) = RPS6KB1 (human) (UniProt P23443)
STK38 (human) = STK38 (human) (UniProt Q15208)
TAOK1 (human) = TAOK1 (human) (UniProt Q7L7X3)
TEK (human) = TEK (human) (UniProt Q02763)
TLK2 (human) = TLK2 (human) (UniProt Q86UE8)
Chain of TLK2 (human) (Q86UE8 whole entry, looked up): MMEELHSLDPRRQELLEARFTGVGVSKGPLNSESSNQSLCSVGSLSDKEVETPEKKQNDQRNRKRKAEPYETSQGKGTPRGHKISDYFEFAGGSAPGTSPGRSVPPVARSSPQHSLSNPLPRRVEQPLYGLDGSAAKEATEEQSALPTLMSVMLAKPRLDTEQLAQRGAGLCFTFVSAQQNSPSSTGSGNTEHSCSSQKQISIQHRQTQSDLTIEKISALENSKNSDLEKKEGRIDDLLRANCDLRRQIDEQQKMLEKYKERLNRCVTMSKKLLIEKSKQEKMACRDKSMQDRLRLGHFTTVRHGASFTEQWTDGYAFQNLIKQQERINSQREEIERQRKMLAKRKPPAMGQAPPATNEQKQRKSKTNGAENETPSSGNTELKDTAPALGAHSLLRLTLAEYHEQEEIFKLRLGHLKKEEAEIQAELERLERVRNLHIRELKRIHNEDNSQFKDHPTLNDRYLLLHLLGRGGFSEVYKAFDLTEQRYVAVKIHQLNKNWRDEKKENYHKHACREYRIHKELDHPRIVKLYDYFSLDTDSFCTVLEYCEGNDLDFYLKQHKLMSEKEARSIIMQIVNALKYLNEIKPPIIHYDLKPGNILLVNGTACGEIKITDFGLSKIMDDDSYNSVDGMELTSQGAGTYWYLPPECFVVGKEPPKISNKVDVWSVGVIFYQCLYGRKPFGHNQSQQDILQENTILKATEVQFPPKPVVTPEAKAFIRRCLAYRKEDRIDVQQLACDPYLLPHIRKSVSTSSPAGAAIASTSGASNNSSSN

ULK3 (human) = ULK3 (human) (UniProt Q6PHR2)
Chain of ULK3 (human) (Q6PHR2 whole entry, looked up): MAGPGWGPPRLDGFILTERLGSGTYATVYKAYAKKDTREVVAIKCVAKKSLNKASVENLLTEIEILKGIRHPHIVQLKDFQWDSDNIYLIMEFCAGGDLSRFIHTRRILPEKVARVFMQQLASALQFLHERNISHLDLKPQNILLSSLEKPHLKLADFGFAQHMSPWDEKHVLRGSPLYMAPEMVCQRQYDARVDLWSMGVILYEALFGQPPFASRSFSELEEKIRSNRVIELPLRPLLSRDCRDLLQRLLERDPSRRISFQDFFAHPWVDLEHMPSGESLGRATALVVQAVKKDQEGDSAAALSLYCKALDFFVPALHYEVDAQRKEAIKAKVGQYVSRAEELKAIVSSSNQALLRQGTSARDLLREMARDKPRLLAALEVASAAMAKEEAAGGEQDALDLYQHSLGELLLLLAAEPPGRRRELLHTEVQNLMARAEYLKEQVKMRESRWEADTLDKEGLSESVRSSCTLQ

Chain of BRAF (human) (P15056 whole entry, looked up): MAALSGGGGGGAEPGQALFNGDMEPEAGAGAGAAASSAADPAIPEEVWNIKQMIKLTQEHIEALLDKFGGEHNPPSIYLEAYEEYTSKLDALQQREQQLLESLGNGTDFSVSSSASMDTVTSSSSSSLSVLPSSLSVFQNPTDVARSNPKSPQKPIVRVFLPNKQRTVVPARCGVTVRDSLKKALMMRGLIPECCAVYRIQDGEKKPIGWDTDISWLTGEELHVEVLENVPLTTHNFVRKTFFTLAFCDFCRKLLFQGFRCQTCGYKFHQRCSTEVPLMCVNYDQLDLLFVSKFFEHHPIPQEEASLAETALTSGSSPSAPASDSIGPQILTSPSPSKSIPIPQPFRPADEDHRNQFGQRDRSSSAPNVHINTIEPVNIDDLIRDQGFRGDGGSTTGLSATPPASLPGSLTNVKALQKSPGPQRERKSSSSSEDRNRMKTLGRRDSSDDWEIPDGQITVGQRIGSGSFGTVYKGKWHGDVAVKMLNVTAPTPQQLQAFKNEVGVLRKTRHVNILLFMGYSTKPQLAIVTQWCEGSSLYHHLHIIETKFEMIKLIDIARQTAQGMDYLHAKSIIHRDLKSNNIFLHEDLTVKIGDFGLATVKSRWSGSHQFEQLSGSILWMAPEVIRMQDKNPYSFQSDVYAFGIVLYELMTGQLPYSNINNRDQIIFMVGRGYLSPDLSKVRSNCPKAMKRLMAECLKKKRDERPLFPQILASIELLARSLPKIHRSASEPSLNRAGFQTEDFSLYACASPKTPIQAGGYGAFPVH
Chain of AURKC (human) (Q9UQB9 whole entry, looked up): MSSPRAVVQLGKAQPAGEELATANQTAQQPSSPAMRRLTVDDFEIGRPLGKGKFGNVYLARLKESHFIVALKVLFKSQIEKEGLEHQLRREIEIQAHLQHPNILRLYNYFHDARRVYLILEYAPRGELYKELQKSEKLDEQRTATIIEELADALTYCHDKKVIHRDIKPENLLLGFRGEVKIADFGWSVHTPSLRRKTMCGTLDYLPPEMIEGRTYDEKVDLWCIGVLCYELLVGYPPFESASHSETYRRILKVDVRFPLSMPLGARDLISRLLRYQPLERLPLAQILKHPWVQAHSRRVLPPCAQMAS

COc1cccc(-c2cc(=O)c3ccccc3o2)c1N
residual activity (ACVR1 (human)): 92.7%
residual activity (ADRBK1 (human)): 99.6%
residual activity (AURKC (human)): 95.3%
residual activity (BMX (human)): 103%
residual activity (BRAF (human)): 93.6%
residual activity (BTK (human)): 83.7%
residual activity (CDK1 CCNA2 (human)): 83.8%
residual activity (DAPK1 (human)): 90.9%
residual activity (DDR2 (human)): 92%
residual activity (DYRK1B (human)): 88.1%
residual activity (EGFR (human)): 81.2%
residual activity (EPHA5 (human)): 97.9%
residual activity (EPHA6 (human)): 81.2%
residual activity (EPHA8 (human)): 96.3%
residual activity (FGFR1 (human)): 96.8%
residual activity (FLT3 (human)): 96.3%
residual activity (FRK (human)): 89.5%
residual activity (FYN (human)): 97.3%
residual activity (GRK5 (human)): 97.3%
residual activity (HIPK1 (human)): 104%
residual activity (IKBKE (human)): 95.1%
residual activity (INSRR (human)): 98.4%
residual activity (IRAK1 (human)): 98.8%
residual activity (LCK (human)): 99%
residual activity (MAP3K2 (human)): 103%
residual activity (MAP3K8 (human)): 85.7%
residual activity (MARK3 (human)): 86.7%
residual activity (MYO3B (human)): 97.8%
residual activity (NEK6 (human)): 102%
residual activity (PDPK1 (human)): 98.3%
residual activity (PRKACG (human)): 96%
residual activity (PRKCG (human)): 100%
residual activity (PRKCZ (human)): 99.1%
residual activity (PRKD2 (human)): 103%
residual activity (RPS6KA3 KD1 KD2 (human)): 93.6%
residual activity (RPS6KB1 (human)): 98%
residual activity (STK38 (human)): 97.4%
residual activity (TAOK1 (human)): 77.9%
residual activity (TEK (human)): 93.1%
residual activity (TLK2 (human)): 84.8%
residual activity (ULK3 (human)): 94.6%

O=C(O)c1ccc2c3c1cccc3c(=O)n1c3ccccc3nc21
residual activity (ACVR1 (human)): 91.1%
residual activity (ADRBK1 (human)): 99.3%
residual activity (AURKC (human)): 88%
residual activity (BMX (human)): 96.4%
residual activity (BRAF (human)): 95.1%
residual activity (BTK (human)): 109%
residual activity (CDK1 CCNA2 (human)): 78.1%
residual activity (DAPK1 (human)): 40.9%
residual activity (DDR2 (human)): 96.8%
residual activity (DYRK1B (human)): 40.1%
residual activity (EGFR (human)): 96.5%
residual activity (EPHA5 (human)): 94.2%
residual activity (EPHA6 (human)): 105%
residual activity (EPHA8 (human)): 89.4%
residual activity (FGFR1 (human)): 84.7%
residual activity (FLT3 (human)): 68.9%
residual activity (FRK (human)): 97.6%
residual activity (FYN (human)): 94%
residual activity (GRK5 (human)): 97.1%
residual activity (HIPK1 (human)): 104%
residual activity (IKBKE (human)): 57.3%
residual activity (INSRR (human)): 101%
residual activity (IRAK1 (human)): 61.1%
residual activity (LCK (human)): 101%
residual activity (MAP3K2 (human)): 90.7%
residual activity (MAP3K8 (human)): 88.3%
residual activity (MARK3 (human)): 82.6%
residual activity (MYO3B (human)): 96.7%
residual activity (NEK6 (human)): 115%
residual activity (PDPK1 (human)): 108%
residual activity (PRKACG (human)): 127%
residual activity (PRKCG (human)): 99.1%
residual activity (PRKCZ (human)): 94.3%
residual activity (PRKD2 (human)): 86.8%
residual activity (RPS6KA3 KD1 KD2 (human)): 95.5%
residual activity (RPS6KB1 (human)): 95.9%
residual activity (STK38 (human)): 97.5%
residual activity (TAOK1 (human)): 93.3%
residual activity (TEK (human)): 102%
residual activity (TLK2 (human)): 91.2%
residual activity (ULK3 (human)): 79.8%

FC(F)(F)c1ccc(/C=C/c2nc(COc3ccc(CCCCn4ccnn4)cc3)co2)cc1
residual activity (ACVR1 (human)): 101%
residual activity (ADRBK1 (human)): 113%
residual activity (AURKC (human)): 97.1%
residual activity (BMX (human)): 99%
residual activity (BRAF (human)): 94.3%
residual activity (BTK (human)): 98.2%
residual activity (CDK1 CCNA2 (human)): 92.6%
residual activity (DAPK1 (human)): 91.3%
residual activity (DDR2 (human)): 101%
residual activity (DYRK1B (human)): 96.7%
residual activity (EGFR (human)): 97.7%
residual activity (EPHA5 (human)): 99.9%
residual activity (EPHA6 (human)): 99.3%
residual activity (EPHA8 (human)): 104%
residual activity (FGFR1 (human)): 101%
residual activity (FLT3 (human)): 87.8%
residual activity (FRK (human)): 99%
residual activity (FYN (human)): 97%
residual activity (GRK5 (human)): 109%
residual activity (HIPK1 (human)): 101%
residual activity (IKBKE (human)): 94.8%
residual activity (INSRR (human)): 101%
residual activity (IRAK1 (human)): 99.5%
residual activity (LCK (human)): 92.1%
residual activity (MAP3K2 (human)): 102%
residual activity (MAP3K8 (human)): 90.8%
residual activity (MARK3 (human)): 96.6%
residual activity (MYO3B (human)): 93.7%
residual activity (NEK6 (human)): 92.6%
residual activity (PDPK1 (human)): 104%
residual activity (PRKACG (human)): 105%
residual activity (PRKCG (human)): 95.2%
residual activity (PRKCZ (human)): 101%
residual activity (PRKD2 (human)): 96.9%
residual activity (RPS6KA3 KD1 KD2 (human)): 96.8%
residual activity (RPS6KB1 (human)): 105%
residual activity (STK38 (human)): 102%
residual activity (TAOK1 (human)): 102%
residual activity (TEK (human)): 95.8%
residual activity (TLK2 (human)): 98.6%
residual activity (ULK3 (human)): 99.5%

CCc1nc(-c2ccc(OC)cc2)[nH]c1-c1ccncc1
residual activity (ACVR1 (human)): 95.8%
residual activity (ADRBK1 (human)): 101%
residual activity (AURKC (human)): 97.4%
residual activity (BMX (human)): 93.4%
residual activity (BRAF (human)): 102%
residual activity (BTK (human)): 106%
residual activity (CDK1 CCNA2 (human)): 91.8%
residual activity (DAPK1 (human)): 97.4%
residual activity (DDR2 (human)): 96.1%
residual activity (DYRK1B (human)): 106%
residual activity (EGFR (human)): 103%
residual activity (EPHA5 (human)): 100%
residual activity (EPHA6 (human)): 104%
residual activity (EPHA8 (human)): 93.5%
residual activity (FGFR1 (human)): 88.1%
residual activity (FLT3 (human)): 91.4%
residual activity (FRK (human)): 101%
residual activity (FYN (human)): 95.1%
residual activity (GRK5 (human)): 107%
residual activity (HIPK1 (human)): 97.7%
residual activity (IKBKE (human)): 99.8%
residual activity (INSRR (human)): 102%
residual activity (IRAK1 (human)): 128%
residual activity (MAP3K2 (human)): 98.2%
residual activity (MAP3K8 (human)): 95%
residual activity (MARK3 (human)): 101%
residual activity (MYO3B (human)): 107%
residual activity (NEK6 (human)): 95.3%
residual activity (PDPK1 (human)): 96%
residual activity (PRKACG (human)): 103%
residual activity (PRKCG (human)): 95.5%
residual activity (PRKCZ (human)): 107%
residual activity (PRKD2 (human)): 102%
residual activity (RPS6KA3 KD1 KD2 (human)): 98.7%
residual activity (RPS6KB1 (human)): 98.4%
residual activity (STK38 (human)): 102%
residual activity (TAOK1 (human)): 104%
residual activity (TEK (human)): 99.1%
residual activity (TLK2 (human)): 102%
residual activity (ULK3 (human)): 83.4%
